Where two headings read alike, the source gives them in different places.
Legend:
[1] = Localization in callous of three week-old tibial fractures in rabbits (Example 2); type: in vivo, albino rabbit; details: rabbits i.v.
Method: Adult New Zealand albino rabbits having an average weight of 3.8 kg were utilized. Strontium-85 was employed as a standard for comparison. […] Each dosage is contained in a volume of 1 ml.
The animals were sacrificed serially from 1 to 24 hours after injection and the activities in major organs were determined by counting multiple samples from each organ in a scintillation well counter (the technetium-99m counts were corrected for the Compton contributions from the strontium-85 activity in the technetium-99m energy window). Multiple samples were counted from the tibia, femur, spine and pelvic bones; the total activity in the skeleton was estimated by assuming the whole skeleton consisted of equal proportions by weight of tibia, spine, femur and pelvis and that the skeletal mass was 10% of the body weight. […] The whole liver and both kidneys were weighed and multiple samples from each were counted to measure the total activity in each organ.
In another series of experiments carried out as described above, localization of technetium from its tin-phosphonate complex was determined in the callous of three week-old fractures of tibia in albino rabbits, again in comparison with strontium-85. Comparative radioassay of technetium-99m administered as the pertechnetate was measured in the callous of tibial fractures in rabbits at one and four hours after administration.

[2] = rabbits, 2 Hrs.
[3] = for Blood, % dose/1% body weight / Bone(Avg), % dose/1% body weight / Femur, % dose/1% body weight / Kidneys, % Dose in Whole Organ / Kidneys, % dose/1% body weight / Liver, % Dose in Whole Organ / Liver, % dose/1% body weight / Marrow, % Dose in Whole Organ / Marrow, % dose/1% body weight / Muscle, % dose/1% body weight / One femur, % dose in whole organ / Pelvis, % dose/1% body weight / Spine, % dose/1% body weight / Tibia, % dose/1% body weight / Blood, % Dose in Whole Organ: rabbits i.v., ~1 mg/kg EHDP

tin-1-hydroxy-ethane-1,1-diphosphonate [^99m Tc-EHDP]
Callus, % dose/1% body weight ([1]; 1 Hr.): 24.7 % dose/1% body weight | Callus, % dose/1% body weight ([1]; 4 Hrs): 28.9 % dose/1% body weight | Blood, % Dose in Whole Organ ([2]; EHDP 0.01 mg/kg): 0.99 % Dose | Blood, % Dose/1%-body weight ([2]; EHDP 0.01 mg/kg): 0.142 % Dose/1%-body weight | Femur, % Dose/1%-body weight ([2]; EHDP 0.01 mg/kg): 7.49 % Dose/1%-body weight | Kidney, % Dose/1%-body weight ([2]; EHDP 0.01 mg/kg): 1.55 % Dose/1%-body weight | Kidneys, % Dose in Whole Organ ([2]; EHDP 0.01 mg/kg): 0.81 % Dose | Liver, % Dose in Whole Organ ([2]; EHDP 0.01 mg/kg): 0.53 % Dose | Liver, % Dose/1%-body weight ([2]; EHDP 0.01 mg/kg): 0.154 % Dose/1%-body weight | Marrow, % Dose in Whole Organ ([2]; EHDP 0.01 mg/kg): 0.34 % Dose | Marrow, % Dose/1%-body weight ([2]; EHDP 0.01 mg/kg): 0.152 % Dose/1%-body weight | Muscle, % Dose in Whole Organ ([2]; EHDP 0.01 mg/kg): 0.78 % Dose | One femur, % dose in whole organ ([2]; EHDP 0.01 mg/kg): 2.20 % Dose | Tibia, % Dose/1%-body weight ([2]; EHDP 0.01 mg/kg): 8.22 % Dose/1%-body weight | Blood, % Dose/1%-body weight ([2]; EHDP 0.05 mg/kg): 0.193 % Dose/1%-body weight | Femur, % Dose/1%-body weight ([2]; EHDP 0.05 mg/kg): 8.38 % Dose/1%-body weight | Kidney, % Dose/1%-body weight ([2]; EHDP 0.05 mg/kg): 3.83 % Dose/1%-body weight | Kidneys, % Dose in Whole Organ ([2]; EHDP 0.05 mg/kg): 2.9 % Dose | Liver, % Dose/1%-body weight ([2]; EHDP 0.05 mg/kg): 0.432 % Dose/1%-body weight | Marrow, % Dose in Whole Organ ([2]; EHDP 0.05 mg/kg): 0.78 % Dose | Marrow, % Dose/1%-body weight ([2]; EHDP 0.05 mg/kg): 0.353 % Dose/1%-body weight | Tibia, % Dose/1%-body weight ([2]; EHDP 0.05 mg/kg): 8.68 % Dose/1%-body weight | Blood, % Dose/1%-body weight ([2]; EHDP 0.1 mg/kg): 0.146 % Dose/1%-body weight | Femur, % Dose/1%-body weight ([2]; EHDP 0.1 mg/kg): 8.97 % Dose/1%-body weight | Kidney, % Dose/1%-body weight ([2]; EHDP 0.1 mg/kg): 1.09 % Dose/1%-body weight | Kidneys, % Dose in Whole Organ ([2]; EHDP 0.1 mg/kg): 0.63 % Dose | Liver, % Dose in Whole Organ ([2]; EHDP 0.1 mg/kg): 0.19 % Dose | Liver, % Dose/1%-body weight ([2]; EHDP 0.1 mg/kg): 0.068 % Dose/1%-body weight | Marrow, % Dose in Whole Organ ([2]; EHDP 0.1 mg/kg): 0.20 % Dose | Marrow, % Dose/1%-body weight ([2]; EHDP 0.1 mg/kg): 0.093 % Dose/1%-body weight | Muscle, % Dose in Whole Organ ([2]; EHDP 0.1 mg/kg): 0.98 % Dose | Tibia, % Dose/1%-body weight ([2]; EHDP 0.1 mg/kg): 9.63 % Dose/1%-body weight | Blood, % Dose/1%-body weight ([2]; EHDP 0.5 mg/kg): 0.215 % Dose/1%-body weight | Kidney, % Dose/1%-body weight ([2]; EHDP 0.5 mg/kg): 2.23 % Dose/1%-body weight | Kidneys, % Dose in Whole Organ ([2]; EHDP 0.5 mg/kg): 1.10 % Dose | Liver, % Dose in Whole Organ ([2]; EHDP 0.5 mg/kg): 0.260 % Dose | Liver, % Dose/1%-body weight ([2]; EHDP 0.5 mg/kg): 0.086 % Dose/1%-body weight | Marrow, % Dose in Whole Organ ([2]; EHDP 0.5 mg/kg): 0.19 % Dose | Marrow, % Dose/1%-body weight ([2]; EHDP 0.5 mg/kg): 0.088 % Dose/1%-body weight | skeletal concentrations compared with 85Sr ([3]; at various times): similar | soft tissue and blood concentrations compared with 85Sr ([3]; at various times): much lower than those for 85Sr | Blood, % dose/1% body weight ([3]; 1 Hr.): 1.23 % dose/1% body weight | Bone(Avg), % dose/1% body weight ([3]; 1 Hr.): 4.66 % dose/1% body weight | Femur, % dose/1% body weight ([3]; 1 Hr.): 3.85 % dose/1% body weight | Kidneys, % Dose in Whole Organ ([3]; 1 Hr.): 2.40 % dose | Kidneys, % dose/1% body weight ([3]; 1 Hr.): 3.93 % dose/1% body weight | Liver, % Dose in Whole Organ ([3]; 1 Hr.): 0.80 % dose | Liver, % dose/1% body weight ([3]; 1 Hr.): 0.30 % dose/1% body weight | Marrow, % Dose in Whole Organ ([3]; 1 Hr.): 0.70 % dose | Marrow, % dose/1% body weight ([3]; 1 Hr.): 0.36 % dose/1% body weight | Muscle, % dose/1% body weight ([3]; 1 Hr.): 0.15 % dose/1% body weight | One femur, % dose in whole organ ([3]; 1 Hr.): 0.82 % dose | Pelvis, % dose/1% body weight ([3]; 1 Hr.): 7.15 % dose/1% body weight | Spine, % dose/1% body weight ([3]; 1 Hr.): 5.87 % dose/1% body weight | Tibia, % dose/1% body weight ([3]; 1 Hr.): 2.17 % dose/1% body weight | Blood, % dose/1% body weight ([3]; 2 Hrs): 0.37 % dose/1% body weight | Bone(Avg), % dose/1% body weight ([3]; 2 Hrs): 4.82 % dose/1% body weight | Femur, % dose/1% body weight ([3]; 2 Hrs): 3.94 % dose/1% body weight | Kidneys, % dose/1% body weight ([3]; 2 Hrs): 2.72 % dose/1% body weight | Liver, % Dose in Whole Organ ([3]; 2 Hrs): 0.42 % dose | Liver, % dose/1% body weight ([3]; 2 Hrs): 0.18 % dose/1% body weight | Marrow, % Dose in Whole Organ ([3]; 2 Hrs): 0.38 % dose | Marrow, % dose/1% body weight ([3]; 2 Hrs): 0.17 % dose/1% body weight | Muscle, % dose/1% body weight ([3]; 2 Hrs): 0.04 % dose/1% body weight | One femur, % dose in whole organ ([3]; 2 Hrs): 0.84 % dose | Pelvis, % dose/1% body weight ([3]; 2 Hrs): 7.40 % dose/1% body weight | Spine, % dose/1% body weight ([3]; 2 Hrs): 5.44 % dose/1% body weight | Tibia, % dose/1% body weight ([3]; 2 Hrs): 2.49 % dose/1% body weight | Blood, % Dose in Whole Organ ([3]; 4 Hrs): 0.89 % dose | Bone(Avg), % dose/1% body weight ([3]; 4 Hrs): 4.74 % dose/1% body weight | Femur, % dose/1% body weight ([3]; 4 Hrs): 3.86 % dose/1% body weight | Kidneys, % Dose in Whole Organ ([3]; 4 Hrs): 0.94 % dose | Kidneys, % dose/1% body weight ([3]; 4 Hrs): 1.95 % dose/1% body weight | Liver, % Dose in Whole Organ ([3]; 4 Hrs): 0.28 % dose | Marrow, % Dose in Whole Organ ([3]; 4 Hrs): 0.83 % dose | Marrow, % dose/1% body weight ([3]; 4 Hrs): 0.38 % dose/1% body weight | One femur, % dose in whole organ ([3]; 4 Hrs): 0.81 % dose | Pelvis, % dose/1% body weight ([3]; 4 Hrs): 7.41 % dose/1% body weight | Spine, % dose/1% body weight ([3]; 4 Hrs): 5.52 % dose/1% body weight | Tibia, % dose/1% body weight ([3]; 4 Hrs): 2.16 % dose/1% body weight | Blood, % Dose in Whole Organ ([3]; 24 Hrs): 0.49 % dose | Blood, % dose/1% body weight ([3]; 24 Hrs): 0.07 % dose/1% body weight | Bone(Avg), % dose/1% body weight ([3]; 24 Hrs): 4.14 % dose/1% body weight | Femur, % dose/1% body weight ([3]; 24 Hrs): 3.42 % dose/1% body weight | Kidneys, % Dose in Whole Organ ([3]; 24 Hrs): 0.63 % dose | Kidneys, % dose/1% body weight ([3]; 24 Hrs): 1.29 % dose/1% body weight | Liver, % Dose in Whole Organ ([3]; 24 Hrs): 0.43 % dose | Liver, % dose/1% body weight ([3]; 24 Hrs): 0.28 % dose/1% body weight | Marrow, % Dose in Whole Organ ([3]; 24 Hrs): 0.42 % dose | Marrow, % dose/1% body weight ([3]; 24 Hrs): 0.19 % dose/1% body weight | One femur, % dose in whole organ ([3]; 24 Hrs): 0.76 % dose | Pelvis, % dose/1% body weight ([3]; 24 Hrs): 5.70 % dose/1% body weight | Spine, % dose/1% body weight ([3]; 24 Hrs): 5.30 % dose/1% body weight | Tibia, % dose/1% body weight ([3]; 24 Hrs): 2.10 % dose/1% body weight

Source: patent US4115541A (priority 1975, dated 1978)
